Earlier results in patent US7045323B2 (priority 1999, dated 2006).

How the values were obtained:
[1] = test system: HIV reverse transcription process
proviral DNA load = conditions: murine model of immunodeficiency; first stage of infection

Structure (SMILES) | inhibition of the HIV reverse transcription process [1] | proviral DNA load (proviral DNA load)
CC(=O)N[C@@H](CS)C(=O)O [N-acetylcysteine] | can inhibit | –
N[C@@H](CCC(=O)N[C@@H](CS)C(=O)NCC(=O)O)C(=O)O [GSH, glutathione] | can inhibit | able to decrease the proviral DNA load
